The source of these data is patent US12662479B2 (Foghorn Therapeutics Inc., priority 2020, dated 2026).

The target of experiment [1] is T1, HiBit-BRG1 fusion protein (Homo sapiens, UniProt P51532).
T1 construct: expressed in transfected cells
As to the kind of experiment: HiBiT-BRG1 cell-based degradation assay (Nano-Glo HiBiT Lytic Detection, 24 h). As to conditions: HeLa cells expressing HiBit-BRG1 and LgBit; for DC50: read-out: BRG1 HiBit Degradation IC50; for Dmax: HeLa, top dose 30 μM, read-out: BRG1 HiBit Degradation Maximum measured. The method in brief: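 Degradation is scaled from DMSO-treated cells (0%) to cells given 2 μM of a known BRM/BRG1 degrader (100%). HeLa cells stably carrying HiBiT-BRG1 plus LgBiT (5000/well) were lysed with Nano-Glo HiBiT detection reagent, shaken 10 min at RT, and luminescence read.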

The target of a further experiment is T2, HiBit-BRM fusion protein (Homo sapiens, UniProt P51531).
T2 construct: expressed in transfected cells
As to the kind of experiment: HiBiT-BRM cell-based degradation assay (Nano-Glo HiBiT Lytic Detection, 24 h). As to conditions: HeLa cells expressing HiBiT-BRM; for DC50: read-out: BRM HiBit Degradation IC50; for BRM HiBit Degradation Maximum measured: top dose 30 μM. The method in brief:
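Stable HiBiT-BRM HeLa line; 24 h compound exposure, top final 30 μM, 3-fold, 10 pts in duplicate. Lytic HiBiT/LgBiT luminescence readout. % degradation vs DMSO (0%) and 2 μM known BRM/BRG1 degrader (100%).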
On the technique in general: HiBiT is a short tag that completes a luciferase, so light tracks the accessible tagged protein.

Structures are written as SMILES.

T2 sequence (P51531 whole entry, the tested form may be a part): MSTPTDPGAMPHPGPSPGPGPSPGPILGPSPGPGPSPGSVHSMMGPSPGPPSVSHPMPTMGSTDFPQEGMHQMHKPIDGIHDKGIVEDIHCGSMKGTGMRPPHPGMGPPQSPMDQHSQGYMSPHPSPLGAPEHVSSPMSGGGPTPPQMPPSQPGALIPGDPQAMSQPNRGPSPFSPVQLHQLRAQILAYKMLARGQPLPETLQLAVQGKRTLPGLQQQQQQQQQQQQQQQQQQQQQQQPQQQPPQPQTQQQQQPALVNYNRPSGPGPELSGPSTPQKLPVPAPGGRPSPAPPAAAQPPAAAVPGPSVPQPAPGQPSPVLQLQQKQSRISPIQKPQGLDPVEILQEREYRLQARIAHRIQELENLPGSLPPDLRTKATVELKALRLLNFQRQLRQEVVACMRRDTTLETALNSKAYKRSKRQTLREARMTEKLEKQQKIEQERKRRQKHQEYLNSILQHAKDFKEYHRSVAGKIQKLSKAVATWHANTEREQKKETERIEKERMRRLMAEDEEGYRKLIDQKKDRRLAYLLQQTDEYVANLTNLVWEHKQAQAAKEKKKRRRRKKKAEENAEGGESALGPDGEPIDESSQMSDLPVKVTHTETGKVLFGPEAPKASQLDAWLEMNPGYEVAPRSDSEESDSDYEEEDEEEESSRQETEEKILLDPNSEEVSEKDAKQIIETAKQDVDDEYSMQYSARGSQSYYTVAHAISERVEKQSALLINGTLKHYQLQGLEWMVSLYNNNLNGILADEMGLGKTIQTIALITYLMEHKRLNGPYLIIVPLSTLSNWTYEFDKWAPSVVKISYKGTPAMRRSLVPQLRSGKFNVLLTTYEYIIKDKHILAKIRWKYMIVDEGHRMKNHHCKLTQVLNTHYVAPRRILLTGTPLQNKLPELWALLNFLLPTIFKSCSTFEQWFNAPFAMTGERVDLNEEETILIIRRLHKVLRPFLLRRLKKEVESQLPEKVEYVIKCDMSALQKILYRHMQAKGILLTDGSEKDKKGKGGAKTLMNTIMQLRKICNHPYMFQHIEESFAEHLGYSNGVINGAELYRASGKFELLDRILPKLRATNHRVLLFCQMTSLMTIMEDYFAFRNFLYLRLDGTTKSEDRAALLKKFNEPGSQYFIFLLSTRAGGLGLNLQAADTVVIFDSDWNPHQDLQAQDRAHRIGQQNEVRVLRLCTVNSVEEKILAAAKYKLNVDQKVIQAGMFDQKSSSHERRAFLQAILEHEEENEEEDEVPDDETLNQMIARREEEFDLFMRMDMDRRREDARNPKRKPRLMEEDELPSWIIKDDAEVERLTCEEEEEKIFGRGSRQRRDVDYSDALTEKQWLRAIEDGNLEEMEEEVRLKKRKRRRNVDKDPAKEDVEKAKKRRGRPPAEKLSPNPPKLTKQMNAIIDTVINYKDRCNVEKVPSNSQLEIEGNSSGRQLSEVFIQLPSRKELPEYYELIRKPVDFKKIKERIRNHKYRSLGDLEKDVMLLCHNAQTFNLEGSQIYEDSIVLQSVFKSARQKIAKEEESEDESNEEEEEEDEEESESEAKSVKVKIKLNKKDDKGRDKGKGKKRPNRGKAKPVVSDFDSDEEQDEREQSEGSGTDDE
T1 sequence (P51532 whole entry, the tested form may be a part): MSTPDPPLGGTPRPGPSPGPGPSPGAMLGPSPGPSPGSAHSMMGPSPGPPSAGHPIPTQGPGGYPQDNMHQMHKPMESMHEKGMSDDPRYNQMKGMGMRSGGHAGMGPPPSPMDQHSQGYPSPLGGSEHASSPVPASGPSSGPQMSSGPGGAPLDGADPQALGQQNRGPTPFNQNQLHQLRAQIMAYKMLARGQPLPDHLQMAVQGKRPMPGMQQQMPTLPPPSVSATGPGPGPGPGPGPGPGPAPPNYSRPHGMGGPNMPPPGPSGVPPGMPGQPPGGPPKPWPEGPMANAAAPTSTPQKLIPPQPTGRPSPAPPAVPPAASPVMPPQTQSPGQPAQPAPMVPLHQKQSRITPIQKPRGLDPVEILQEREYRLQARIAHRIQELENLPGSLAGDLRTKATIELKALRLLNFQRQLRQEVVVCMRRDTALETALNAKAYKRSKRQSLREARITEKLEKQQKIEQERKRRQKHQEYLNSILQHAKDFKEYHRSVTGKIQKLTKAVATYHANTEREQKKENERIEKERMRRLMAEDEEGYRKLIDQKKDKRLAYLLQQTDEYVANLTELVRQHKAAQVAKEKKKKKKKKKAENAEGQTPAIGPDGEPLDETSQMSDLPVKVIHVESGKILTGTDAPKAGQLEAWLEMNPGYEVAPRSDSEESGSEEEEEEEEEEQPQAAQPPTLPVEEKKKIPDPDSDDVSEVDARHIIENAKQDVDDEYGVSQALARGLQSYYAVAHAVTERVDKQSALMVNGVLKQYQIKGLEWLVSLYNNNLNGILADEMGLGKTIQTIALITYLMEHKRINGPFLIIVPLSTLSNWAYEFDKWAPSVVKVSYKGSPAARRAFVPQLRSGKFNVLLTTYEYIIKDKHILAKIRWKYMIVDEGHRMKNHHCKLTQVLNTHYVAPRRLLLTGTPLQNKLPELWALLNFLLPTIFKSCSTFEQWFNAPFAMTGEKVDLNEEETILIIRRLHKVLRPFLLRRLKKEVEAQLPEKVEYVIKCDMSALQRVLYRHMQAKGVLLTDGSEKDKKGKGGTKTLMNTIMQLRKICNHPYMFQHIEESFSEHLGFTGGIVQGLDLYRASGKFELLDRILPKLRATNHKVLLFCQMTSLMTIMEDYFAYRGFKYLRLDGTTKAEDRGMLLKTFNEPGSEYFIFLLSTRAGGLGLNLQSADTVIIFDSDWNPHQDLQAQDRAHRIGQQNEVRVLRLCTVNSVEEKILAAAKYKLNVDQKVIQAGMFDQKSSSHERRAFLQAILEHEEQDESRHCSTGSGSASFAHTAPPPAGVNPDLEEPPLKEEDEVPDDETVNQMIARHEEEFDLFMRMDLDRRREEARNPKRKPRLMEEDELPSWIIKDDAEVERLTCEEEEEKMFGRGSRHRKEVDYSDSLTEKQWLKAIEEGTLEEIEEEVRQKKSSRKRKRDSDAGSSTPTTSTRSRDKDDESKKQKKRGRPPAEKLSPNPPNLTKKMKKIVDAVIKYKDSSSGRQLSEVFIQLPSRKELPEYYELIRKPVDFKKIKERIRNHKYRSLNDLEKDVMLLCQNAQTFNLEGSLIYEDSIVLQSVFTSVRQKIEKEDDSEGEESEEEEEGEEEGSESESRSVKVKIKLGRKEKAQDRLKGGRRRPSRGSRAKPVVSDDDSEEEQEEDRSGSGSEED

As for `CS(=O)(=O)n1ccc(C(=O)NCC(=O)Nc2nc(-c3cccc(-c4ccnc(C5(C(=O)NCCNc6ccc7c(c6)CN(C6CCC(=O)NC6=O)C7=O)CC5)c4)c3)cs2)c1` (stereo not drawn) [Compound 167, N-(2-[[2-(2,6-dioxopiperidin-3-yl)-1-oxo-3H-isoindol-5-yl]amino]ethyl)-1-[4-[3-(2-[2-[(1-methanesulfonylpyrrol-3-yl)formamido]acetamido]-1,3-thiazol-4-yl)phenyl]pyridin-2-yl]cyclopropane-1-carboxamide], in experiment [1], the DC50 is under 100 nM and the Dmax is over 75%. In addition, on HiBit-BRM fusion protein, the DC50 was under 100 nM and the “BRM HiBit Degradation Maximum measured” value is listed as “A (‘A’ = Maximum degradation >75%)”.
For the compound `CS(=O)(=O)n1ccc(C(=O)NCC(=O)Nc2nc(-c3cccc(-c4ccnc(C5(C(=O)NCCNc6ccc7c(c6)C(=O)N(C6CCC(=O)NC6=O)C7)CC5)c4)c3)cs2)c1` (stereo not drawn) [Compound 168, N-(2-((4-(3-(2-(1-((2-((2-(2,6-dioxopiperidin-3-yl)-3-oxoisoindolin-5-yl)amino)ethyl)carbamoyl)cyclopropyl)pyridin-4-yl)phenyl)thiazol-2-yl)amino)-2-oxoethyl)-1-(methylsulfonyl)-1H-pyrrole-3-carboxamide], in experiment [1], the DC50 is under 100 nM and the Dmax is over 75%. For the same compound, on HiBit-BRM fusion protein, the DC50 is under 100 nM and the “BRM HiBit Degradation Maximum measured” value is given as “A (‘A’ = Maximum degradation >75%)”.
As to `CS(=O)(=O)n1ccc(C(=O)NCC(=O)Nc2nc(-c3cccc(-c4ccnc(C5(C(=O)NCCNc6cccc7c6CN(C6CCC(=O)NC6=O)C7=O)CC5)c4)c3)cs2)c1` (stereo not drawn) [Compound 169, N-(2-((4-(3-(2-(1-((2-((2-(2,6-dioxopiperidin-3-yl)-1-oxoisoindolin-4-yl)amino)ethyl)carbamoyl)cyclopropyl)pyridin-4-yl)phenyl)thiazol-2-yl)amino)-2-oxoethyl)-1-(methylsulfonyl)-1H-pyrrole-3-carboxamide], in experiment [1], the DC50 was over 10000 nM and the Dmax is under 50%. Also, at HiBit-BRM fusion protein, the DC50 is over 10000 nM and the “BRM HiBit Degradation Maximum measured” value is given as “C (‘C’ = Maximum degradation <50%)”.
As for `CC(C)(C)n1ccc(C(=O)N[C@@H](COCc2ccc(C(=O)NC3CCN(CCOc4ccc5c(c4)C(=O)N(C4CCC(=O)NC4=O)C5=O)CC3)cc2)C(=O)Nc2nc(-c3ccccc3)cs2)c1` (stereo partly drawn) [Compound 170, 4-[[(2S)-2-[(1-tert-butylpyrrol-3-yl)formamido]-2-[(4-phenyl-1,3-thiazol-2-yl)carbamoyl]ethoxy]methyl]-N-[1-(2-[[2-(2,6-dioxopiperidin-3-yl)-1,3-dioxoisoindol-5-yl]oxy]ethyl)piperidin-4-yl]benzamide], in experiment [1], the DC50 was in the range of 100 to 1000 nM and the Dmax is over 75%. In addition, at HiBit-BRM fusion protein, the DC50 was 100 to 1000 nM and the “BRM HiBit Degradation Maximum measured” value is “A (‘A’ = Maximum degradation >75%)”.
For `CC(C)(C)n1ccc(C(=O)N[C@@H](COCc2ccc(C(=O)NCCOC3CN(c4ccc5c(c4)C(=O)N(C4CCC(=O)NC4=O)C5=O)C3)cc2)C(=O)Nc2nc(-c3ccccc3)cs2)c1` (stereo partly drawn) [Compound 171], the DC50 (in experiment [1]; on HiBit-BRM fusion protein) was under 100 nM in each case.
In the case of `CS(=O)(=O)n1ccc(C(=O)N[C@@H](COCCCC(=O)NCCCCS(=O)(=O)CCCNc2cccc3c2C(=O)N(C2CCC(=O)NC2=O)C3=O)C(=O)Nc2nc(-c3ccccc3)cs2)c1` (stereo partly drawn) [Compound 172], in experiment [1], the DC50 was over 10000 nM and the Dmax is under 50%. In addition, at HiBit-BRM fusion protein, the DC50 is over 10000 nM and the “BRM HiBit Degradation Maximum measured” value was “C (‘C’ = Maximum degradation <50%)”.
For `Cc1ncsc1-c1ccc(CNC(=O)[C@@H]2C[C@@H](O)CN2C(=O)[C@@H](NC(=O)COCCOCCNC(=O)CCCOC[C@H](NC(=O)c2ccn(S(C)(=O)=O)c2)C(=O)Nc2nc(-c3ccccc3)cs2)C(C)(C)C)cc1` [Compound 173, (2S,4R)-4-hydroxy-1-[(2S)-2-[2-[2-(2-[4-[(2S)-2-[(1-methanesulfonylpyrrol-3-yl)formamido]-2-[(4-phenyl-1,3-thiazol-2-yl)carbamoyl]ethoxy]butanamido]ethoxy)ethoxy]acetamido]-3,3-dimethylbutanoyl]-N-[[4-(4-methyl-1,3-thiazol-5-yl)phenyl]methyl]pyrrolidine-2-carboxamide], in experiment [1], the DC50 is over 10000 nM and the Dmax was under 50%. Besides, at HiBit-BRM fusion protein, the DC50 is over 10000 nM and the “BRM HiBit Degradation Maximum measured” value is on record as “C (‘C’ = Maximum degradation <50%)”.
`Cc1ncsc1-c1ccc(CNC(=O)C2CC(O)CN2C(=O)C(NC(=O)CCCCCCCNC(=O)c2ccc(COCC(NC(=O)c3ccn(S(C)(=O)=O)c3)C(=O)Nc3nc(-c4ccccc4)cs3)cc2)C(C)(C)C)cc1` (stereo not drawn) [Compound 174]: in experiment [1], the DC50 lay within 100 to 1000 nM and the Dmax lay within 50 to 75%. For the same compound, at HiBit-BRM fusion protein, the DC50 lay within 100 to 1000 nM; the “BRM HiBit Degradation Maximum measured” value was “B (‘B’ = Maximum degradation ≥50% and ≤75%)”.
On to `CN(CCNC(=O)COc1cccc2c1C(=O)N(C1CCC(=O)NC1=O)C2=O)CCNC(=O)c1ccc(COC[C@H](NC(=O)c2ccn(S(C)(=O)=O)c2)C(=O)Nc2nc(-c3ccccc3)cs2)cc1` (stereo partly drawn) [Compound 175], for which, in experiment [1], the DC50 was over 10000 nM and the Dmax was under 50%. Further, on HiBit-BRM fusion protein, the DC50 was over 10000 nM and the “BRM HiBit Degradation Maximum measured” value is “C (‘C’ = Maximum degradation <50%)”.
As to `CS(=O)(=O)n1ccc(C(=O)N[C@@H](COCc2ccc(CNC(=O)CCN3CC4(C3)CN(c3ccc5c(c3)C(=O)N(C3CCC(=O)NC3=O)C5=O)C4)cc2)C(=O)Nc2nc(-c3ccccc3)cs2)c1` (stereo partly drawn) [Compound 176, (2S)-3-([4-[(3-[6-[2-(2,6-dioxopiperidin-3-yl)-1,3-dioxoisoindol-5-yl]-2,6-diazaspiro[3.3]heptan-2-yl]propanamido)methyl]phenyl]methoxy)-2-[(1-methanesulfonylpyrrol-3-yl)formamido]-N-(4-phenyl-1,3-thiazol-2-yl)propanamide], in experiment [1], the DC50 lay in the range of 100 to 1000 nM and the Dmax was in the range of 50 to 75%. In addition, at HiBit-BRM fusion protein, the DC50 is 100 to 1000 nM; the “BRM HiBit Degradation Maximum measured” value is “B (‘B’ = Maximum degradation ≥50% and ≤75%)”.
For the compound `Cc1ncsc1-c1ccc(CNC(=O)[C@@H]2C[C@@H](O)CN2C(=O)[C@@H](NC(=O)CCCCCCCCC(=O)NCc2ccc(COC[C@H](NC(=O)c3ccn(S(C)(=O)=O)c3)C(=O)Nc3nc(-c4ccccc4)cs3)cc2)C(C)(C)C)cc1` [Compound 177, N-[(2S)-1-[(2S,4R)-4-hydroxy-2-([[4-(4-methyl-1,3-thiazol-5-yl)phenyl]methyl]carbamoyl)pyrrolidin-1-yl]-3,3-dimethyl-1-oxobutan-2-yl]-N′-[(4-[[(2S)-2-[(1-methanesulfonylpyrrol-3-yl)formamido]-2-[(4-phenyl-1,3-thiazol-2-yl)carbamoyl]ethoxy]methyl]phenyl)methyl]decanediamide], in experiment [1], the DC50 was 100 to 1000 nM and the Dmax lay within 50 to 75%. At HiBit-BRM fusion protein, the DC50 is over 10000 nM and the “BRM HiBit Degradation Maximum measured” value was “C (‘C’ = Maximum degradation <50%)”.
